Measurements from patent publication US11702408B2, “5-membered aza-heterocyclic containing delta-opioid receptor modulating compounds, methods of using and making the same” (Trevena, Inc., priority 2017, dated 2023).

Legend:
adult male C57 mice = experiment: Tail suspension test (TST); format: in vivo, mouse; conditions: TST route sc, p < 0.05 compared to vehicle-treated mice
Description: The experiments were performed using adult male C57 mice (6-10 weeks of age, 20-30 g, Hilltop Lab, PA). The mice were housed in standard rodent cages with stainless steel mesh wire bar lids in groups of 4 with controlled temperature and light cycle (6:00 a.m.-6:00 p.m.). Animals were given free access to food (Harlan Teklad Global 18% protein (Madison, Wis.)) and water during a minimum 2-day habituation period to the laboratory. Animals that were used in the study were handled, housed, and sacrificed (using compressed CO2) in accord with the current NIH guidelines regarding the use and care of laboratory animals, and all applicable local, state, and federal regulations and guidelines. Animals are identified by cage number, and by markings applied to the proximal tip of the tail using a permanent marker. Group sizes (n=8, and therefore 30-50 animals per study) provide reliable estimates of treatment effects, and this species and strain of mouse has been recognized as appropriate for pharmacology studies.
To measure efficacy of the compounds the compounds were tested using a tail suspension test. The tail suspension test is a behavioral test used to evaluate the efficacy of antidepressant drugs in rodents. In the TST, mice (n=8/group) were suspended by the tail with tape approximately 30-50 cm above the lab bench. Mice are positioned such that the base of their tail is perpendicular to the lab bench. Each mouse is given 1 trial that last 6 minutes. The total duration of immobility is calculated as the percentage of time that the mouse is immobile. The duration of immobility is the main parameter measured. This is calculated from the cumulated time during which the animals is absent of initiated movements including passive swaying. When antidepressant drugs are administered, immobility is decreased by a variety of classes of antidepressant drugs. One or more of the compounds show antidepressant activity.

[1] = molecular target: T1, delta-opioid receptor (Accession NP_000902) (Homo sapiens, UniProt P41143); experiment: β-arrestin recruitment assay (DiscoveRx PathHunter); format: cell-based; conditions: β-arrestin pathway, HEK-293 stable line
T1 sequence (P41143 whole entry): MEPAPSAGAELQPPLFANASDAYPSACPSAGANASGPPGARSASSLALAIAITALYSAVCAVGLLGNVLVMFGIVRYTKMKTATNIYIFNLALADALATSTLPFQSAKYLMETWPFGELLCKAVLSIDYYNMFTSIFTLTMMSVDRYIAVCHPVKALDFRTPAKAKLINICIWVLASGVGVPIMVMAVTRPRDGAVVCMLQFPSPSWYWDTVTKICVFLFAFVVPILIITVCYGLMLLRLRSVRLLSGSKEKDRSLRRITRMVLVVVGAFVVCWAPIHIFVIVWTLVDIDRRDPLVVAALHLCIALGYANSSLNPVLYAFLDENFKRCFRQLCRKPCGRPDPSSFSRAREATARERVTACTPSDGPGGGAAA
Description: (§1) Plasmids encoding delta-opioid receptor (Accession NP_000902), mu-opioid receptor (Accession NP_000905) and kappa-opioid receptor (Accession Assession NP_000903) were generated in the pCMV-Prolink backbone and transfected into an EA-arrestin parental human embryonic kidney (HEK-293) cell line from DiscoveRx Corporation. Clonal stable lines were subsequently selected under G418.
Cell lines were grown adherently in Minimum Essential Media (Cellgro cat #10-010-CM) containing 10% fetal bovine serum (Hyclone cat #SH30071.03), 4 mM glutamine (Cellgro cat #25-005-CI), 150 ug/ml hygromycin B (Cellgro cat #30-240-CR), 150 ug/ml G418 (Cellgro cat #30-234-CR), and 50 u/50 ug penicillin/streptomycin (Lonza cat #17-603E). Prior to the assay cells were removed from the flasks with CellStripper (Cellgro cat #25-056-CI), repeatedly pipetted to disperse cells, and spun at low speed for 5 min at room temperature. Cells were then resuspended at 250,000 cells/ml in growth media and plated at 5,000 cells/well in 384 well plates (Greiner part #784080). […]
Receptor mediated beta-arrestin recruitment was determined using the DiscoveRx β-arrestin PathHunter Detection kit (cat #93-0001). […] Following a 60 minute incubation at 37° C. the components of the DiscoveRx β-arrestin PathHunter Detection kit were added as directed and the plates were read after 1 hour on a BMG PheraStar plate reader.

[2] = molecular target: T1, delta-opioid receptor (Accession NP_000902); experiment: cAMP assay (receptor G-protein mediated response, HTRF); format: cell-based
Description: as §1
Cell lines were grown adherently in Minimum Essential Media (Cellgro cat #10-010-CM) containing 10% fetal bovine serum (Hyclone cat #SH30071.03), 4 mM glutamine (Cellgro cat #25-005-CI), 150 ug/ml hygromycin B (Cellgro cat #30-240-CR), 150 ug/ml G418 (Cellgro cat #30-234-CR), and 50 u/50 ug penicillin/streptomycin (Lonza cat #17-603E). […]
Receptor G-protein mediated responses were determined by measuring changes in intracellular cAMP using CisBio HTRF cAMP HiRange kit (cat #62AM6PEJ) based on time-resolved fluorescence resonance energy transfer (TR-FRET). […] Following a 30 minute incubation at 37° C. the components of the cAMP HiRange kit were added as directed and the plates were read after 1 hour on a BMG PheraStar plate reader. Responses were measured as the ratio of fluorescence at 665 nm/620 nm per manufacturer's instructions.

| SMILES | Active TST Dose (adult male C57 mice) | also measured |
| --- | --- | --- |
| CCCN1C[C@H](COc2ccc3c(c2)C(=O)NC3)[C@@H](c2ccc(F)cc2)C1 [Compound A0045] | ≤10 mg/kg |  |
| CCCN1C[C@H](COc2ccc3c(c2)C(=O)NC3)[C@H](c2ccc(F)cc2)C1 [Compound A0073] | ≤30 mg/kg |  |
| CCCN1C[C@@H](COc2ccc3c(c2)C(=O)NC3)[C@H](c2ccc(F)cc2)C1 [Compound A0090] | ≤10 mg/kg |  |
| CCCN1C[C@H](COc2ccc3c(c2)C(=O)NC3)[C@H](c2ccccc2)C1 [Compound A0095] | ≤10 mg/kg |  |
| O=C1NCc2ccc(OC[C@@H]3CN(CC4CC4)C[C@H]3c3ccc(F)cc3)cc21 [Compound A0105] | ≤10 mg/kg |  |
| CCCN1C[C@H](COc2ccc3c(c2)C(=O)NC3)[C@H](c2ccc(F)c(F)c2)C1 [Compound A0108] | ≤10 mg/kg |  |
| CCCN1C[C@H](COc2ccc3c(c2)C(=O)NC3)[C@H](c2ccc(OCCN3C(=O)CCC3=O)cc2)C1 [Compound A0113] | ≤10 mg/kg |  |
| COc1ccc([C@@H]2CN(CC3CC3)C[C@@H]2COc2ccc3c(c2)C(=O)NC3)cc1F [Compound A0116] |  | Active TST Dose (adult male C57 mice; po): ≤30 mg/kg |
| CCCN1C[C@@]2(COc3ccc4c(c3)C(=O)NC4)C[C@@]2(c2cccc(F)c2)C1 [Compound A0128] |  | Active TST Dose (adult male C57 mice; po): ≤30 mg/kg |
| Fc1ccc([C@@H]2CCNC[C@H]2COc2ccc3c(c2)OCO3)cc1 [Paroxetine, paroxetine] |  | hDOR B Span [1]: <100; EC50 ([1]; read-out: hDOR B pEC50 (converted)): > 1 µM; hDOR G Span ([2]; G-protein (cAMP) pathway, HEK-293 stable line): <100; selectivity for the delta-opioid receptor ([2]; versus mu- and kappa-opioid receptor): non-selective agonist |
